Test results from US8168651B2, “Protein kinase modulators” (Cylene Pharmaceuticals, Inc., priority 2008, dated 2012).
Like-named read-outs stand apart in the source and are kept apart here.

Legend:
recombinant human PIM1 = recombinant human PIM1 (Homo sapiens (Human), UniProt P11309); experiment: PIM-1 kinase activity in cell-free in vitro assay; assay type: biochemical; conditions: for inhibition at 0.5 µM: 500 nM compound, read-out: PIM-1: % inh 500 nM
MV-4-11 [1] = experiment: Cell proliferation modulatory activity, MV-4-11; assay type: cell-based; conditions: Homo sapiens, MV4-11
[2] = test system: HCT-116 human colorectal carcinoma cells; experiment: Cell-proliferation assay using Alamar Blue dye; assay type: cell-based; conditions: Homo sapiens;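 further: cells exposed to compound for about 4 days, then Alamar Blue added and dye fluorescence read after about 4 h, compared with medium-only control wells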
K-562 [3] = experiment: Cell proliferation modulatory activity, K-562; assay type: cell-based; conditions: Homo sapiens, K562
MV-4-11 [4] = experiment: Cell proliferation modulatory activity, MV-4-11; assay type: cell-based; conditions: Homo sapiens, MV4-11; remark: listed apart in the source
K-562 [5] = experiment: Cell proliferation modulatory activity, K-562; assay type: cell-based; conditions: Homo sapiens, K562; remark: listed apart in the source
Flt3 = Flt3 (Homo sapiens (Human), UniProt P36888); experiment: FLT-3 kinase activity in cell free in vitro assay; assay type: biochemical; conditions: cell-free assay
Chain of Flt3 (P36888 27-993): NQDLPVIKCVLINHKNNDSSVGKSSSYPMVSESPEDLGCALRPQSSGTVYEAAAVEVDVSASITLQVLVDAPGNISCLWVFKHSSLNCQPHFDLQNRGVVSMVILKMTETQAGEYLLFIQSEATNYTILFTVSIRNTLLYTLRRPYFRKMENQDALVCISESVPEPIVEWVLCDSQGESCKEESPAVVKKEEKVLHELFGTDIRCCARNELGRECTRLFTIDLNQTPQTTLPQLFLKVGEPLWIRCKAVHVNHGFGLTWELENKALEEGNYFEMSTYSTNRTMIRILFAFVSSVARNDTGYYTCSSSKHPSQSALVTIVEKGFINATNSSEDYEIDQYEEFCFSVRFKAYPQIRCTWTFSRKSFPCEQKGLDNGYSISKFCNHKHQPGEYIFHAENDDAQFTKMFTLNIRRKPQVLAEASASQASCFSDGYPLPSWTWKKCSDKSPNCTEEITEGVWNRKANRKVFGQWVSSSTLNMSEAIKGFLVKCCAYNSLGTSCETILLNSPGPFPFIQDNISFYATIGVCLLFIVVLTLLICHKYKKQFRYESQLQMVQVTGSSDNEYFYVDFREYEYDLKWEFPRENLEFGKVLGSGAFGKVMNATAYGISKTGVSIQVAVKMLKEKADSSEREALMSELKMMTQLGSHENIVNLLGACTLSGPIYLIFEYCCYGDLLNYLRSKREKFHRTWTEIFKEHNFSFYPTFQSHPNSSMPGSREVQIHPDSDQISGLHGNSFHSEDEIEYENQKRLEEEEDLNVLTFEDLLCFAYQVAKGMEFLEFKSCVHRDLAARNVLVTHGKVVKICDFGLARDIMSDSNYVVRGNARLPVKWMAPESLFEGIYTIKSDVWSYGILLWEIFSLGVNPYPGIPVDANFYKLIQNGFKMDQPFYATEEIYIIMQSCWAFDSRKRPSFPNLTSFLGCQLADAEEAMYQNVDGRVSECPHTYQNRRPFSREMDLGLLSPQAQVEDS

Jurkat = experiment: Cell proliferation modulatory activity, Jurkat; assay type: cell-based; conditions: Homo sapiens
recombinant human CK2 = recombinant human CK2 (Homo sapiens (Human), UniProt P68400); experiment: CK2 assay (cell-free, 33P-ATP filter plate); assay type: biochemical; conditions: cell-free assay; for IC50: 15 um ATP, read-out: CK2 (15 um ATP) IC50; for inhibition at 0.5 µM: 500 nM compound, read-out: CK2: % inh 500 nM
Chain of recombinant human CK2 (P68400 whole entry): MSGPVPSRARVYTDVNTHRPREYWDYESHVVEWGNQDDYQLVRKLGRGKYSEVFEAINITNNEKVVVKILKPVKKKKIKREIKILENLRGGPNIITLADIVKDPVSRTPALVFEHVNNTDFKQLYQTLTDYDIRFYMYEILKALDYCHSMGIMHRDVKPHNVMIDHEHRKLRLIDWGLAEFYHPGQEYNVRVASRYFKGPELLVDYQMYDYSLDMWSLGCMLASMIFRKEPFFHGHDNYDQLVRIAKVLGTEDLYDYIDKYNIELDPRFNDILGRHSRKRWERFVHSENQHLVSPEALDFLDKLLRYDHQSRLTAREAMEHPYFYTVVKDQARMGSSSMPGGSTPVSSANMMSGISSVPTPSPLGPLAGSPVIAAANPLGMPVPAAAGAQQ
Chain of recombinant human CK2 (P67870 whole entry partner): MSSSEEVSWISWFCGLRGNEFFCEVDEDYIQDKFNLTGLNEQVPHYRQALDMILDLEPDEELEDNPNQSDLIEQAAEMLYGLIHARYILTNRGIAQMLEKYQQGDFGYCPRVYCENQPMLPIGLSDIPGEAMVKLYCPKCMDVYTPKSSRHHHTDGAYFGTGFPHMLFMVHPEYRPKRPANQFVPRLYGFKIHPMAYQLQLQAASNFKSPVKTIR

K-562 [6] = experiment: Cell proliferation modulatory activity, K-562; assay type: cell-based; conditions: Homo sapiens, K562; K-562 cells
MV-4-11 [7] = experiment: Cell proliferation modulatory activity, MV-4-11; assay type: cell-based; conditions: Homo sapiens, MV4-11; MV-4-11 cells
[8] = HCT-116, read-out: HCT-116 (uM), cell proliferation modulatory activity, HCT-116, first column
[9] = HCT-116, read-out: HCT-116 (uM), cell proliferation modulatory activity, HCT-116, second column
[10] = HCT-116, HCT-116, second HCT-116 column (c8), read-out: HCT-116 (uM), cell proliferation modulatory activity
[11] = HCT-116, second HCT-116 column (c8), read-out: HCT-116 (uM) cell proliferation modulatory activity

Chain of recombinant human PIM1 (P11309 whole entry): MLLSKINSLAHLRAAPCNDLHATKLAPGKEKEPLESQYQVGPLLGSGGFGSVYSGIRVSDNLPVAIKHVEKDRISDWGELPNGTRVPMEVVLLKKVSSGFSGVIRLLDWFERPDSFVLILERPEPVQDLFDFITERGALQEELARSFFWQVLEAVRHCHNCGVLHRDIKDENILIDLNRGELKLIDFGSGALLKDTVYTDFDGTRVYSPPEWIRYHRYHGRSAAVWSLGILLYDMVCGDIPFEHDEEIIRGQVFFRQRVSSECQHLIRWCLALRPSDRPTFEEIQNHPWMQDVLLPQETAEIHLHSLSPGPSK

Compound	inhibition at 0.5 µM (recombinant human PIM1; cell-free assay)	IC50 (MV-4-11 [4])	IC50 (K-562 [5])	IC50 (Flt3; read-out: FLT-3)	IC50 [2, 10]	further results
CN(C)CCNc1nc2cc(C(=O)O)ccc2c2sccc12						inhibition at 0.5 µM (recombinant human PIM1; cell-free): 83.4%; IC50 (MV-4-11 [1]): > 10 µM; IC50 [2, 8]: 10 µM; IC50 (K-562 [3]): > 10 µM
O=C(O)c1ccc2c(c1)nc(NCCN1CCCC1)c1ccsc12						inhibition at 0.5 µM (recombinant human PIM1; cell-free): 67.2%; IC50 (recombinant human PIM1; cell-free): 244 nM; IC50 (MV-4-11 [1]): > 10 µM; IC50 [2, 8]: 10 µM; IC50 (K-562 [3]): > 10 µM
c1ccc(Nc2nc3cc(-c4nnn[nH]4)ccc3c3sccc23)cc1						inhibition at 0.5 µM (recombinant human PIM1; cell-free): 70.9%; IC50 (recombinant human PIM1; cell-free): 262 nM; IC50 (MV-4-11 [1]): 1.09 µM; IC50 [2, 8]: 10 µM; IC50 (K-562 [3]): > 10 µM
CN(C)CCNc1nc2cc(-c3nnn[nH]3)ccc2c2sccc12						inhibition at 0.5 µM (recombinant human PIM1; cell-free): 92.9%; IC50 (recombinant human PIM1; cell-free): 47 nM; IC50 (MV-4-11 [1]): > 10 µM; IC50 [2, 8]: 10 µM; IC50 [2, 9]: > 10 µM; IC50 (K-562 [3]): > 10 µM
Fc1ccc(Nc2nc3cc(-c4nnn[nH]4)ccc3c3sccc23)cc1						inhibition at 0.5 µM (recombinant human PIM1; cell-free): 74.3%; IC50 (recombinant human PIM1; cell-free): 174 nM; IC50 (MV-4-11 [1]): 4.53 µM; IC50 [2, 8]: 10 µM; IC50 (K-562 [3]): > 10 µM
O=C(O)c1ccc2c(c1)nc(Nc1ccccc1)c1ccncc12						inhibition at 0.5 µM (recombinant human PIM1; cell-free): 21.9%; IC50 (recombinant human PIM1; cell-free): 1020 nM; IC50 (MV-4-11 [1]): 6.45 µM; IC50 (K-562 [3]): 4.01 µM
CN(C)CCNc1nc2cc(C(=O)O)ccc2c2cnccc12						inhibition at 0.5 µM (recombinant human PIM1; cell-free): 63.6%; IC50 (recombinant human PIM1; cell-free): 242 nM; IC50 (MV-4-11 [1]): > 10 µM; IC50 (K-562 [3]): > 10 µM
OCc1cccc(Nc2nc3cc(-c4nnn[nH]4)ccc3c3sccc23)c1						inhibition at 0.5 µM (recombinant human PIM1; cell-free): 87.6%; IC50 (recombinant human PIM1; cell-free): 162 nM; IC50 (MV-4-11 [1]): 0.609 µM; IC50 (K-562 [3]): > 10 µM
N#Cc1cccc(Nc2nc3cc(C(=O)O)ccc3c3sccc23)c1						inhibition at 0.5 µM (recombinant human PIM1; cell-free): 71.4%; IC50 (recombinant human PIM1; cell-free): 213 nM; IC50 (MV-4-11 [1]): 0.226 µM; IC50 (K-562 [3]): > 10 µM
OCc1ccc2c(c1)nc(Nc1cccc(Cl)c1)c1ccncc12	4.22%	0.529 µM	5.52 µM	0.013 µM		IC50 ([2]; HCT-116, read-out: HCT-116 (uM), cell proliferation modulatory activity, HCT-116, second HCT-116 column (c8)): 4.28 µM
NC(=O)c1ccc2c(c1)nc(Nc1cccc(C(F)(F)F)c1)c1nc(NC3CC3)ncc12	12.5%	0.149 µM	0.157 µM	0.343 µM		IC50 (Jurkat): 1.16 µM
CC(C)OC(=O)Nc1ccc2c(c1)nc(Nc1cccc(C(F)(F)F)c1)c1nc(NC3CC3)ncc12	10.1%	0.108 µM	0.061 µM	> 0.4 µM		IC50 (Jurkat): 1.16 µM
CNC(=O)c1ccc2c(c1)nc(Nc1cccc(Cl)c1)c1ccncc12	-39.8%		> 10 µM	> 0.4 µM	> 10 µM	IC50 (Jurkat): 13.7 µM; IC50 (recombinant human CK2): > 750 nM
CN(C)C(=O)c1ccc2c(c1)nc(Nc1cccc(Cl)c1)c1ccncc12	4.85%	> 10 µM	> 10 µM	> 0.4 µM	8.17 µM	IC50 (Jurkat): 1.51 µM; IC50 (recombinant human CK2): > 750 nM
O=C(NC1CC1)c1ccc2c(c1)nc(Nc1cccc(Cl)c1)c1ccncc12	-5.18%	> 10 µM	> 10 µM	> 0.4 µM	> 10 µM	IC50 (Jurkat): 2.16 µM; IC50 (recombinant human CK2): 487 nM
O=C(Nc1ccccc1)c1ccc2c(c1)nc(Nc1cccc(Cl)c1)c1ccncc12	-0.772%	0.069 µM	> 10 µM	> 0.4 µM	> 10 µM	
O=C(NCc1ccncc1)c1ccc2c(c1)nc(Nc1cccc(Cl)c1)c1ccncc12	-12.8%	0.181 µM	> 10 µM	> 0.4 µM	2.5 µM	
O=C(NCCN1CCOCC1)c1ccc2c(c1)nc(Nc1cccc(Cl)c1)c1ccncc12	1.16%	0.099 µM	> 10 µM	> 0.4 µM	> 10 µM	
O=C(NCc1ccccn1)c1ccc2c(c1)nc(Nc1cccc(Cl)c1)c1ccncc12	-11.1%	> 10 µM	> 10 µM	0.289 µM	9.88 µM	
COCCNC(=O)c1ccc2c(c1)nc(Nc1cccc(Cl)c1)c1ccncc12	-29.7%	0.043 µM	> 10 µM	> 0.4 µM	> 10 µM	
O=C(NCc1ccccc1)c1ccc2c(c1)nc(Nc1cccc(Cl)c1)c1ccncc12	-29.4%	0.095 µM	> 10 µM	0.331 µM	> 10 µM	

Compound	inhibition at 0.5 µM (recombinant human PIM1; cell-free assay)	IC50 (MV-4-11 [4])	IC50 (K-562 [5])	IC50 (Flt3; read-out: FLT-3)	IC50 [2, 10]	further results
CN1CCN(C(=O)c2ccc3c(c2)nc(Nc2cccc(Cl)c2)c2ccncc23)CC1	-28.4%	> 10 µM	> 10 µM	> 0.4 µM	> 10 µM	
CN1CCCN(C(=O)c2ccc3c(c2)nc(Nc2cccc(Cl)c2)c2ccncc23)CC1	-11.8%	0.171 µM	> 10 µM	> 0.4 µM	2.67 µM	
CC(=O)N1CCN(C(=O)c2ccc3c(c2)nc(Nc2cccc(Cl)c2)c2ccncc23)CC1	-5.01%	> 10 µM	> 10 µM	> 0.4 µM	> 10 µM	
O=C(Nc1nccs1)c1ccc2c(c1)nc(Nc1cccc(Cl)c1)c1ccncc12	-6.62%	> 10 µM	> 10 µM	> 0.4 µM	> 10 µM	
Cc1cnc(CNC(=O)c2ccc3c(c2)nc(Nc2cccc(Cl)c2)c2ccncc23)cn1	-19.8%	> 10 µM	> 10 µM	0.362 µM	> 10 µM	
O=C(c1ccc2c(c1)nc(Nc1cccc(Cl)c1)c1ccncc12)N1CCOCC1	-14.4%	> 10 µM	> 10 µM	> 0.4 µM	> 10 µM	
O=C(NCc1cccnc1)c1ccc2c(c1)nc(Nc1cccc(Cl)c1)c1ccncc12	-16.2%	0.112 µM	> 10 µM	> 0.4 µM	> 10 µM	
CC(C)(C)OC(=O)N1CCN(C(=O)c2ccc3c(c2)nc(Nc2cccc(Cl)c2)c2ccncc23)CC1	-7.41%	> 10 µM	> 10 µM	> 0.4 µM	5.97 µM	
NCCNC(=O)c1ccc2c(c1)nc(Nc1cccc(Cl)c1)c1ccncc12	-19.8%	> 10 µM	> 10 µM	> 0.4 µM	7.22 µM	IC50 (Jurkat): 7.67 µM
Clc1cccc(Nc2nc3ccccc3c3cnccc23)c1	-22.8%					IC50 (K-562 [6]): > 10 µM; inhibition at 0.5 µM (recombinant human CK2): -42.8%; IC50 (MV-4-11 [7]): 2.82 µM; IC50 (Flt3; read-out: FLT-3 (uM) IC50): 0.344 µM; IC50 [2, 11]: > 10 µM
O=C(O)c1ccc2nc(Nc3cccc(Cl)c3)c3ccncc3c2c1	11.9%					IC50 (K-562 [6]): > 10 µM; inhibition at 0.5 µM (recombinant human CK2): 67.8%; IC50 (MV-4-11 [7]): > 10 µM; IC50 (Flt3; read-out: FLT-3 (uM) IC50): > 0.4 µM; IC50 [2, 11]: > 10 µM
O=C(O)c1ccc2c(c1)nc(Nc1cc(F)cc(Cl)c1)c1ccncc12	101%					IC50 (K-562 [6]): 1.56 µM; inhibition at 0.5 µM (recombinant human CK2): 98.7%; IC50 (recombinant human PIM1; cell-free assay): 75 nM; IC50 (MV-4-11 [7]): 0.25 µM; IC50 (Flt3; read-out: FLT-3 (uM) IC50): 0.031 µM; IC50 [2, 11]: > 10 µM
O=C(O)c1ccc2c(c1)nc(Nc1cccc(Cl)c1)c1cnccc12	71.5%					IC50 (K-562 [6]): > 10 µM; inhibition at 0.5 µM (recombinant human CK2): -9.32%; IC50 (recombinant human PIM1; cell-free assay): 122 nM; IC50 (MV-4-11 [7]): > 10 µM; IC50 (Flt3; read-out: FLT-3 (uM) IC50): > 0.4 µM; IC50 [2, 11]: > 10 µM
Clc1cccc(Nc2nc3cc(-c4nnco4)ccc3c3cnccc23)c1	-0.614%					IC50 (K-562 [6]): > 10 µM; inhibition at 0.5 µM (recombinant human CK2): 29.9%; IC50 (MV-4-11 [7]): 0.501 µM; IC50 (Flt3; read-out: FLT-3 (uM) IC50): 0.236 µM; IC50 [2, 11]: 5.17 µM
NC(=O)c1ccc2c(c1)nc(Nc1cccc(C(F)(F)F)c1)c1ccncc12	1.09%					IC50 (K-562 [6]): 2.46 µM; inhibition at 0.5 µM (recombinant human CK2): 34.4%; IC50 (MV-4-11 [7]): 0.12 µM; IC50 (Flt3; read-out: FLT-3 (uM) IC50): 0.006 µM; IC50 [2, 11]: 4.28 µM
CONC(=O)c1ccc2c(c1)nc(Nc1cccc(Cl)c1)c1ccncc12	-15.6%					IC50 (K-562 [6]): 2.61 µM; inhibition at 0.5 µM (recombinant human CK2): 14.2%; IC50 (MV-4-11 [7]): 0.691 µM; IC50 (Flt3; read-out: FLT-3 (uM) IC50): > 0.4 µM; IC50 [2, 11]: 4.54 µM
Clc1cccc(Nc2nc3cc(-c4nnc[nH]4)ccc3c3cnccc23)c1	-19.3%					IC50 (K-562 [6]): 0.546 µM; inhibition at 0.5 µM (recombinant human CK2): -2.18%; IC50 (MV-4-11 [7]): 1.06 µM; IC50 (Flt3; read-out: FLT-3 (uM) IC50): 0.09 µM; IC50 [2, 11]: > 10 µM
O=C(O)c1ccc2c(c1)nc(NCCc1cccc(F)c1)c1ccncc12 [drawing 1560]						inhibition at 0.5 µM (recombinant human PIM1; cell-free): 74%; IC50 (recombinant human PIM1; cell-free): 351 nM; IC50 (MV-4-11 [1]): > 10 µM; IC50 [2, 9]: > 10 µM
O=C(O)c1ccc2c(c1)nc(Nc1cccc(C(F)(F)F)c1)c1nc(NC3CC3)ncc12 [drawing 1596]	-17.3%			> 0.4 µM		IC50 (Jurkat): 3.13 µM
NC(=O)c1ccc2c(c1)nc(Nc1cccc(Cl)c1)c1ccncc12 [drawing 1674]	-3.44%	0.037 µM	1.23 µM	0.003 µM	2.13 µM	IC50 (Jurkat): 0.91 µM; inhibition at 0.5 µM (recombinant human CK2): 91.2%; IC50 (recombinant human CK2): 417 nM
